pIC50: −log10 of the molar value.
Biological target: T1, GST-ALK5 (Homo sapiens, UniProt P36897)
T1 sequence (P36897 34-503): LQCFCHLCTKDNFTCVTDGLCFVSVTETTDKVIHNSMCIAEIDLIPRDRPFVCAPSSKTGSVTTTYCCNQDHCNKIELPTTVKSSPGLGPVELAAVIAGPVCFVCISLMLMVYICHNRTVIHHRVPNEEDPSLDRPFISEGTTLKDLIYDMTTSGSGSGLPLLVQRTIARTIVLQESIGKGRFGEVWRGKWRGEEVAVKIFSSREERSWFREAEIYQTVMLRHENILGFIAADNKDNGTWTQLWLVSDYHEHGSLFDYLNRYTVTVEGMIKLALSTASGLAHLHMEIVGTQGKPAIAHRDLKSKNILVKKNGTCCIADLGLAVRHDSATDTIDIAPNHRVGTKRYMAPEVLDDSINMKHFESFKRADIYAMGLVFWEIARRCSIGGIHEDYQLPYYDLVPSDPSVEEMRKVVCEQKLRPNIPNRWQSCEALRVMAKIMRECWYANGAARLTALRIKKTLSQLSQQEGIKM
Assay: In-vitro (enzyme) kinase assay, 384-well flashplate, GST-SMAD2 substrate
Type: biochemical
Settings: 31.2 nM GST-ALK5, 439 nM GST-SMAD2, 3 mM ATP, 30° C., 45 min
Protocol: In-Vitro (Enzyme) Assay for Determination of the Efficacy of Inhibitors of the Inhibition of TGF-Beta-Mediated Effects
The kinase assay was carried out as 384-well flashplate assay. 31.2 nM of GST-ALK5, 439 nM of GST-SMAD2 and 3 mM of ATP (with 0.3 μCi of ^33P-ATP/well) were incubated in a total volume of 35 μl (20 mM of HEPES, 10 mM of MgCl2, 5 mM of MnCl2, 1 mM of DTT, 0.1% of BSA, pH 7.4) without or with test substance (5-10 concentrations) at 30° C. for 45 min. The reaction was stopped using 25 μl of 200 mM EDTA solution, filtered with suction at room temperature after 30 min, and the wells were washed with 3 times 100 μl of 0.9% NaCl solution. Radioactivity was measured in the TopCount. The IC50 values were calculated using RS1 (Table 1). Above and below, all temperatures were indicated in ° C.

Cc1cccc(-c2nc(OCc3ccc(OCCN4CCOCC4)cc3)nc3sc(C(N)=O)c(N)c23)n1 [No 35, 5-Amino-4-(6-methyl-pyridin-2-yl)-2-[4-(2-morpholin-4-yl-ethoxy)-benzyloxy]-thieno[2,3-d]pyrimidine-6-carboxylic acid amide]
pIC50: 6.30 to 7.00

NC(=O)c1sc2nc(OC[C@H]3CCC(=O)N3)nc(-c3cccc(Cl)c3)c2c1N [No 77, 5-Amino-4-(3-chloro-phenyl)-2-((R)-5-oxo-pyrrolidin-2-ylmethoxy)-thieno[2,3-d]pyrimidine-6-carboxylic acid amide]
pIC50: 6.30 to 7.00

NC(=O)c1sc2nc(OCCN3CCCC3=O)nc(-c3cccc(Cl)c3)c2c1N [No 48, 5-Amino-4-(3-chloro-phenyl)-2-[2-(2-oxo-pyrrolidin-1-yl)-ethoxy]-thieno[2,3-d]pyrimidine-6-carboxylic acid amide]
pIC50: > 7.00

Cc1ccc(-c2nc(O[C@@H](C)[C@H](C)O)nc3sc(C(N)=O)c(N)c23)o1 [No 36, 5-Amino-2-((1S,2S)-2-hydroxy-1-methyl-propoxy)-4-(5-methyl-furan-2-yl)-thieno[2,3-d]pyrimidine-6-carboxylic acid amide]
pIC50: 6.30 to 7.00

NC(=O)c1sc2nc(OCC#CCO)nc(-c3cccc(Cl)c3)c2c1N [No 59, 5-Amino-4-(3-chloro-phenyl)-2-(4-hydroxy-but-2-ynyloxy)-thieno[2,3-d]pyrimidine-6-carboxylic acid amide]
pIC50: > 7.00

NC(=O)c1sc2nc(OCCCn3cccn3)nc(-c3cccc(Cl)c3)c2c1N [No 41, 5-Amino-4-(3-chloro-phenyl)-2-(3-pyrazol-1-yl-propoxy)-thieno[2,3-d]pyrimidine-6-carboxylic acid amide]
pIC50: > 7.00

NC(=O)c1sc2nc(OCC3CCCO3)nc(-c3cccc(Cl)c3)c2c1N (centres unmarked) [No 73, 5-Amino-4-(3-chloro-phenyl)-2-(tetrahydro-furan-2-ylmethoxy)-thieno[2,3-d]pyrimidine-6-carboxylic acid amide]
pIC50: 6.30 to 7.00

NC(=O)c1sc2nc(OCC3CCC(CO)CC3)nc(-c3cccc(Cl)c3)c2c1N (centres unmarked) [No 67, 5-Amino-4-(3-chloro-phenyl)-2-(4-hydroxymethyl-cyclohexylmethoxy)-thieno[2,3-d]pyrimidine-6-carboxylic acid amide]
pIC50: 6.30 to 7.00

Cc1ccc(-c2nc(OCc3cnn(C)c3)nc3sc(C(N)=O)c(N)c23)o1 [No 24, 5-Amino-4-(5-methyl-furan-2-yl)-2-(1-methyl-1H-pyrazol-4-ylmethoxy)-thieno[2,3-d]pyrimidine-6-carboxylic acid amide]
pIC50: > 7.00

C=C(C)CCOc1nc(-c2cccc(C(F)(F)F)c2)c2c(N)c(C(N)=O)sc2n1 [No 17, 5-Amino-2-(3-methyl-but-3-enyloxy)-4-(3-trifluoromethyl-phenyl)-thieno[2,3-d]pyrimidine-6-carboxylic acid amide]
pIC50: 6.30 to 7.00

NC(=O)c1sc2nc(OCC3CC3)nc(-c3cccc(Cl)c3)c2c1N [No 4, 5-Amino-4-(3-chloro-phenyl)-2-cyclopropylmethoxy-thieno[2,3-d]pyrimidine-6-carboxylic acid amide]
pIC50: > 7.00

NC(=O)c1sc2nc(OCCCN3CCCC3=O)nc(-c3cccc(Cl)c3)c2c1N [No 54, 5-Amino-4-(3-chloro-phenyl)-2-[3-(2-oxo-pyrrolidin-1-yl)-propoxy]-thieno[2,3-d]pyrimidine-6-carboxylic acid amide]
pIC50: 6.30 to 7.00

NC(=O)c1sc2nc(OC[C@@H](O)CO)nc(-c3cccc(Cl)c3)c2c1N [No 18, 5-Amino-4-(3-chloro-phenyl)-2-((S)-2,3-dihydroxy-propoxy)-thieno[2,3-d]pyrimidine-6-carboxylic acid amide]
pIC50: 6.30 to 7.00

NC(=O)c1sc2nc(OCCN3CCNC3=O)nc(-c3cccc(Cl)c3)c2c1N [No 61, 5-Amino-4-(3-chloro-phenyl)-2-[2-(2-oxo-imidazolidin-1-yl)-ethoxy]-thieno[2,3-d]pyrimidine-6-carboxylic acid amide]
pIC50: 6.30 to 7.00

NC(=O)c1sc2nc(OC/C=C/CO)nc(-c3cccc(Cl)c3)c2c1N [No 71, 5-Amino-4-(3-chloro-phenyl)-2-((E)-4-hydroxy-but-2-enyloxy)-thieno[2,3-d]pyrimidine-6-carboxylic acid amide]
pIC50: > 7.00

COCCOc1nc(-c2cccc(Cl)c2)c2c(N)c(C(N)=O)sc2n1 [No 1, 5-Amino-4-(3-chloro-phenyl)-2-(2-methoxy-ethoxy)-thieno[2,3-d]pyrimidine-6-carboxylic acid amide]
pIC50: 6.30 to 7.00

NC(=O)c1sc2nc(OC[C@H]3C[C@@H]3CO)nc(-c3cccc(Cl)c3)c2c1N [No 60, 5-Amino-4-(3-chloro-phenyl)-2-((1S,2S)-2-hydroxymethyl-cyclopropylmethoxy)-thieno[2,3-d]pyrimidine-6-carboxylic acid amide]
pIC50: > 7.00

Cn1cc(COc2nc(-c3cccc(Cl)c3)c3c(N)c(C(N)=O)sc3n2)cn1 [No 44, 5-Amino-4-(3-chloro-phenyl)-2-(1-methyl-1H-pyrazol-4-ylmethoxy)-thieno[2,3-d]pyrimidine-6-carboxylic acid amide]
pIC50: > 7.00

NC(=O)c1sc2nc(OCCC(O)CO)nc(-c3cccc(Cl)c3)c2c1N (centres unmarked) [No 62, 5-Amino-4-(3-chloro-phenyl)-2-(3,4-dihydroxy-butoxy)-thieno[2,3-d]pyrimidine-6-carboxylic acid amide]
pIC50: > 7.00

NC(=O)c1sc2nc(OC[C@H](O)CO)nc(-c3cccc(Cl)c3)c2c1N [No 50, 5-Amino-4-(3-chloro-phenyl)-2-((R)-2,3-dihydroxy-propoxy)-thieno[2,3-d]pyrimidine-6-carboxylic acid amide]
pIC50: 6.30 to 7.00

Cc1ccc(-c2nc(OCc3cccnc3)nc3sc(C(N)=O)c(N)c23)o1 [No 31, 5-Amino-4-(5-methyl-furan-2-yl)-2-(pyridin-3-ylmethoxy)-thieno[2,3-d]pyrimidine-6-carboxylic acid amide]
pIC50: 6.30 to 7.00

NC(=O)c1sc2nc(OCC3(CO)CC3)nc(-c3cccc(Cl)c3)c2c1N [No 65, 5-Amino-4-(3-chloro-phenyl)-2-(1-hydroxymethyl-cyclopropylmethoxy)-thieno[2,3-d]pyrimidine-6-carboxylic acid amide]
pIC50: 6.30 to 7.00

COc1nc(-c2ccc(C)s2)c2c(N)c(C(N)=O)sc2n1 [No 23, 5-Amino-2-methoxy-4-(5-methyl-thiophen-2-yl)-thieno[2,3-d]pyrimidine-6-carboxylic acid amide]
pIC50: 6.30 to 7.00

NC(=O)c1sc2nc(OCC3CCC3)nc(-c3cccc(Cl)c3)c2c1N [No 9, 5-Amino-4-(3-chloro-phenyl)-2-cyclobutylmethoxy-thieno[2,3-d]pyrimidine-6-carboxylic acid amide]
pIC50: 6.30 to 7.00

NC(=O)c1sc2nc(OCC3CCCC3)nc(-c3cccc(C(F)(F)F)c3)c2c1N [No 8, 5-Amino-2-cyclopentylmethoxy-4-(3-trifluoromethyl-phenyl)-thieno[2,3-d]pyrimidine-6-carboxylic acid amide]
pIC50: < 6.00

NC(=O)c1sc2nc(OCC3CC3)nc(-c3cccc(C(F)(F)F)c3)c2c1N [No 14, 5-Amino-2-cyclopropylmethoxy-4-(3-trifluoromethyl-phenyl)-thieno[2,3-d]pyrimidine-6-carboxylic acid amide]
pIC50: < 6.00

Cc1cccc(-c2nc(OCc3cnn(C)c3)nc3sc(C(N)=O)c(N)c23)n1 [No 33, 5-Amino-2-(1-methyl-1H-pyrazol-4-ylmethoxy)-4-(6-methyl-pyridin-2-yl)-thieno[2,3-d]pyrimidine-6-carboxylic acid amide]
pIC50: > 7.00

Cc1ccc(-c2nc(OCCn3cccn3)nc3sc(C(N)=O)c(N)c23)o1 [No 29, 5-Amino-4-(5-methyl-furan-2-yl)-2-(2-pyrazol-1-yl-ethoxy)-thieno[2,3-d]pyrimidine-6-carboxylic acid amide]
pIC50: 6.30 to 7.00

Cc1ccc(-c2nc(OCCCn3cccn3)nc3sc(C(N)=O)c(N)c23)o1 [No 39, 5-Amino-4-(5-methyl-furan-2-yl)-2-(3-pyrazol-1-yl-propoxy)-thieno[2,3-d]pyrimidine-6-carboxylic acid amide]
pIC50: 6.30 to 7.00

COc1nc(-c2ccc(C)o2)c2c(N)c(C(N)=O)sc2n1 [No 19, 5-Amino-2-methoxy-4-(5-methyl-furan-2-yl)-thieno[2,3-d]pyrimidine-6-carboxylic acid amide]
pIC50: > 7.00

CC(C)(C)OCCOc1nc(-c2cccc(Cl)c2)c2c(N)c(C(N)=O)sc2n1 [No 11, 5-Amino-2-(2-tert-butoxy-ethoxy)-4-(3-chloro-phenyl)-thieno[2,3-d]pyrimidine-6-carboxylic acid amide]
pIC50: 6.30 to 7.00

NC(=O)c1sc2nc(OC/C=C\CO)nc(-c3cccc(Cl)c3)c2c1N [No 58, 5-Amino-4-(3-chloro-phenyl)-2-((Z)-4-hydroxy-but-2-enyloxy)-thieno[2,3-d]pyrimidine-6-carboxylic acid amide]
pIC50: > 7.00

Source: patent publication US20120101095A1, “ALKOXY-THIENOPYRIMIDINES AS TGF-BETA RECEPTOR KINASE MODULATORS” (priority 2009, published 2012)
